In US12673039B2, “Methods of inducing autophagy using coumarin derivatives and related compounds” (Buck Institute for Research on Aging, priority 2019, dated 2026):

How the values were obtained:
SH-SY5Y cells = assay: Autophagic flux (LC3-II ± bafilomycin A1) in SH-SY5Y cells; assay type: cell-based, human; details: presence and absence of bafliomycin A1
Procedure: FIG. 23, panels A-H: FXR modulation enhances HLH-30 expression in human neuronal SH-SY5Y cells. Panel A) Effects of AIC106 on human FXR activity was determined in a mammalian one-hybrid based kit assay by quantifying changes in the luciferase activity of FXR ligand (GW4064, GW) induced treatment. [N=3 independent experiments (mean±SD). ****p<0.0001, by one-way ANOVA with Tukey's multiple comparisons test]. Panel B) Protein expression of TFEB, cathepsin-D (CAT-D) and small heterodimer partner-1 (SHP-1) was determined by immunoblot in neuronal SH-SY5Y cells post-24 hours of treatment with AIC106 and DMSO-control. Panel C) AIC106 enhances autophagic flux in neuronal SH-SY5Y cells. Autophagic flux in DMSO-control and AIC106 treated neuronal cells was determined by quantifying levels of autophagosome specific LC3-II protein both in presence and absence of autophagy inhibitor bafliomycin A1 (Baf A, 10 nM). Panel D) Relative fold change in the band intensity of LC3-II protein, normalized to loading control actin. Values are relative to DMSO-control. […] Panel E) Effects of AIC106 treatment for 72 hours on basal TAU and phosphorylated-TAU in differentiated human neuronal SH-SHY5Y and heterozygous TSC1(+/−) mutant SH-SY5Y neuronal cells were quantitated by immunoblotting following total protein extraction. […]

C. elegans = assay: FCCP mitochondrial toxin stress assay in C. elegans; assay type: in vivo; details: for resistance to mitochondrial toxin FCCP (survival): wild type worms, 24 hours treatment
Procedure: FIG. 20, panels A-H: AIC106 treatment improves mitochondrial health. Panel A) Changes in mitochondrial membrane potential were determined by quantifying fluorescence intensity of individual TMRM stained wild type N2 worms post-24 hours treatment with AIC106 and DMSO-control. [N=3 independent experiments (mean±SD). ****p<0.0001, by unpaired t-test]. Panel B) TMRM stained wild type N2 worms were monitored by fluorescence microscopy. Panel C) Mitophagy flux upon AIC106 treatment was determined in DLM14 young adult worms (TOMM-7 tagged to a peptide linked dual-Fluorescent GFP) by quantifying relative fold changes in ratio of monomeric-fluorescent protein (mFP) to dual-fluorescent protein (dFP) compared to DMSO-control. Panel D) Ability of AIC106 to rescue mitochondrial toxin (FCCP) sensitivity was determined as percent survival of 24 hours treated AIC106 and DMSO-control wild type N2 worms. [N=3 independent experiments (mean±SD). ****p<0.0001, by two-way ANOVA with Sidak's multiple comparisons test]. Panel E) Ability of AIC106 to rescue enhanced mitochondrial toxin (FCCP, 20 μM) sensitivity in mitophagy deficient parkin/pdr-1 mutant was determined as percent survival of 24 hours treated AIC106 and DMSO-control pdr-1(tm598) and pdr-1(tm598); hlh-30(tm1978) mutant. […] Panel F) Effect of AIC106 on mitochondrial biogenesis was determined by quantifying GFP fluorescence intensity in an individual SJ4143 worm (GFP targeted in mitochondria of intestinal cells) post-72 hours of treatment with AIC106 and DMSO-control. […] Panel G) SJ4143 worms were monitored by fluorescence microscopy. Panel H) Effects of AIC106 on basal (B) and maximum (M) mitochondrial respiration rate were determined by quantifying oxygen consumption rate (OCR) in wild type N2 and hlh-30(tm1978) mutant strain post-24 hours of treatment with AIC106 and DMSO-control. […]
FIG. 22, panels A-H: AIC106-induced HLH-30 expression is mediated by the nuclear hormone receptor DAF-12. […] Panel F) Protection against mitochondrial toxin (FCCP) was determined by quantifying survival of young adult worms treated 24 hours with DFA or DMSO-control. […]

Compound	autophagic flux (LC3 turnover) (SH-SY5Y cells)	FCCP sensitivity of pdr-1 mutant (C. elegans; pdr-1(tm598), FCCP 20 μM, hlh-30 dependent)	resistance to mitochondrial toxin FCCP (survival) (C. elegans)
O=c1oc2c3c4c(cc2c2c1CCC2)CCCN4CCC3 [C1, 2,3,6,7,10,11-Hexahydro-1H,5H-cyclopenta(3,4)(1)benzopyrano(6,7,8-ij)quinolizin-12(9H)-one]	enhanced autophagic flux	significantly rescue enhanced mitochondrial sensitivity of pdr-1 mutant	more resistant to mitochondrial uncoupler FCCP
Cc1cccc(C)c1OCc1cc(C(=O)N2CCC(c3ccncc3)CC2)no1 [DFA, dafadine-A, reference compound]	–	–	protected against mitochondrial toxin FCCP
